What was measured:
Format in all cases: biochemical
[1] = target: T1, ERp5 (Homo sapiens, UniProt Q15084); assay: Di-eosin-GSSG disulfide reductase assay
T1 construct: recombinant His-tagged full-length ERp5, ERp72 and PDI domain fragments; His; made in house; host or cells: Escherichia coli Origami B (DE3), pET-15b
T1 sequence (Q15084 20-440): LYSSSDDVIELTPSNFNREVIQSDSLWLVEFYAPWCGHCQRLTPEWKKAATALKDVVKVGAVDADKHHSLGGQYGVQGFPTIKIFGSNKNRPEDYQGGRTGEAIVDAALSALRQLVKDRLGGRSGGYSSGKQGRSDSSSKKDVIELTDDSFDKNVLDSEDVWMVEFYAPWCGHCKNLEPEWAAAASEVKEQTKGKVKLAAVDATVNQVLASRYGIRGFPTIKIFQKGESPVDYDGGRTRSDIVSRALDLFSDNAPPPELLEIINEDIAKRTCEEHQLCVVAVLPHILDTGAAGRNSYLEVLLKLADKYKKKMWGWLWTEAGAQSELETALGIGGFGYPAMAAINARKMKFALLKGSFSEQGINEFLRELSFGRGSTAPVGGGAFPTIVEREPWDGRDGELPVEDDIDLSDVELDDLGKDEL
Protocol: (§1) The probe di-eosin glutathione disulfide, di-eosin-GSSG, was prepared as previously described in Raturi, A., Vacratsis, P. O., Seslija, D., Lee, L. & Mutus, B., Biochem J 391, 351-357 (2005). Reductase activity of purified thiol isomerases and PDI domains was monitored in a 96-well fluorescence plate format. PDI, AGHA-PDI, ERpS, ERp57, ERp72 and PDI domains were assayed at 50 nM in the presence or absence of the indicated small molecules, peptides or cathepsin G. The assay included 100 mM potassium phosphate (pH 7.4) containing 2 mM EDTA, 5 μM DTT and 150 nM of the di-eosin GSSG probe. The increase in fluorescence was determined for 20 minutes by excitation at 520 nm and emission at 550 nm in a Synergy Biotek 4. The reduction of 150 nM di-eosin-GSSG by 5 μM DTT in the presence or absence of mentioned small molecules, peptides or proteins served as a negative control.

[2] = target: T2, ERp72 (Homo sapiens, UniProt P13667); assay: Di-eosin-GSSG disulfide reductase assay
T2 construct: recombinant His-tagged full-length ERp5, ERp72 and PDI domain fragments; His; made in house; host or cells: Escherichia coli Origami B (DE3), pET-15b
T2 sequence (P13667 21-645): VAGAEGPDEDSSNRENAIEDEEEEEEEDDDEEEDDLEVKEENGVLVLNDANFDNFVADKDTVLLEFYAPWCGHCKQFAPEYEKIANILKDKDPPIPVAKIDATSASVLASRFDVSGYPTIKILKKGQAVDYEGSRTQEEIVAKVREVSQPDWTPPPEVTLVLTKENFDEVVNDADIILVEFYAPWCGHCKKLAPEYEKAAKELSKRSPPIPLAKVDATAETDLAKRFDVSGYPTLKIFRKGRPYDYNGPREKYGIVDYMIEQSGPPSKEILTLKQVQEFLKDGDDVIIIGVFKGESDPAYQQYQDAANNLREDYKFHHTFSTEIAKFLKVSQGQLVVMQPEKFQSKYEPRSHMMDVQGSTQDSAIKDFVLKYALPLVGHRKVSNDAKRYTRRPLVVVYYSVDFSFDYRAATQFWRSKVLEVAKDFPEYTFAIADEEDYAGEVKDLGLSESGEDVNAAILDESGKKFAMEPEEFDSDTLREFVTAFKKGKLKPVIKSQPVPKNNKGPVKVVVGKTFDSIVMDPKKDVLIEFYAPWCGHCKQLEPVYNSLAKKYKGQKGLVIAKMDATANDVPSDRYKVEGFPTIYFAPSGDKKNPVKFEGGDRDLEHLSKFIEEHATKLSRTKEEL
Protocol: as §1

[3] = target: T3, PDI mutant in which the CGHC motif is mutated to AGHA (Homo sapiens, UniProt P07237, C397A/C400A/C53A/C56A); assay: Di-eosin-GSSG disulfide reductase assay, catalytically inactive mutant; conditions: FIG. 1c
T3 sequence (P07237 18-508 C53A/C56A/C397A/C400A): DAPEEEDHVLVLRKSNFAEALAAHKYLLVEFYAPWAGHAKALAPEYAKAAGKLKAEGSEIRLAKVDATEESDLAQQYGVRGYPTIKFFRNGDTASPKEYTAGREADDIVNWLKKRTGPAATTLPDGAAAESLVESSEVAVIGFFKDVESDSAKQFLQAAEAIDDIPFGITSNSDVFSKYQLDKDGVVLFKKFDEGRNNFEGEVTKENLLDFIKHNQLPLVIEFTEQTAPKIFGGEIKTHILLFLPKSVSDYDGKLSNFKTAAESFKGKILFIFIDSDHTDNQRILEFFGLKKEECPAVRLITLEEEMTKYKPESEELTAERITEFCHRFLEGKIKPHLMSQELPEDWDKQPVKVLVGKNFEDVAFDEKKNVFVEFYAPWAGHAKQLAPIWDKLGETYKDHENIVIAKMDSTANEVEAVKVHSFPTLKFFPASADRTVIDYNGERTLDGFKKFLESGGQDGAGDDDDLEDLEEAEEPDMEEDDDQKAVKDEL
Protocol: as §1

[4] = target: T1, ERp5; assay: Insulin reductase assay, thiol isomerase selectivity; conditions: 10-fold IC50, FIG. 2
Protocol: (§2) The thiol isomerase-catalyzed reduction of insulin was assayed by measuring the increase in turbidity as detected at an optical density (OD) of 650 nm using a Spectramax M3 (Molecular Devices, Sunnyvale, Calif.). The validation assay consisted of 175 nM of PDI in a solution containing 100 mM potassium phosphate (pH 7.4) containing 0.2 mM bovine insulin, 2 mM EDTA, and 0.3 mM DTT (all purchased from Sigma Aldrich, St. Louis, Mo.), inhibitors were used at the concentrations indicated. The reaction was performed at 25° C. for one hour and thirty minutes. For assays of thiol isomerase selectivity, 11 nM PDI, ERp57 or Thioredoxin, or 33 nM ERpS were assayed in similar buffer conditions as described above and inhibitors were used at the indicated concentration. The reaction was performed at 37° C. for forty-five minutes. For assays of isolated domains studies, 400 nM protein was used, except for a, a′ and ab, in which 800 nM protein was used. The assay was performed in similar buffer conditions as described above. Bepristat 2a and N-(2,4-Dimethoxyphenyl)-N-(1-oxo-2-propyn-1-yl)-2-(2-thienyl)glycyl-glycine ethyl ester (PACMA-31) were used at a final concentration of 15 μM in these studies.

[5] = target: T4, thioredoxin (Homo sapiens, UniProt P10599); assay: as above; conditions: 10-fold IC50, FIG. 2
T4 sequence (P10599 1-105): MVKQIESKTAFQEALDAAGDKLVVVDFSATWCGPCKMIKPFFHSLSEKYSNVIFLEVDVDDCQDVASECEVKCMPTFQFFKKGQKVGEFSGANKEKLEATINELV
Protocol: as §2

| SMILES | cleavage of di-eosin-GSSG by ERp5 (catalytic activity) [1] | cleavage of di-eosin-GSSG by ERp72 (catalytic activity) [2] | augmentation of activity of catalytically inactive PDI (AGHA) [3] | inhibition of reductase activity of ERp5 [4] | inhibition of reductase activity of thioredoxin [5] |
| --- | --- | --- | --- | --- | --- |
| CCOC(=O)c1c(CNCCN(CC)CC)n(-c2ccccc2)c2cc(Br)c(O)cc12 [bepristat 2a] | did not augment activity | did not augment activity | fails to augment activity | – | – |
| C#CC(=O)N(c1ccc(OC)cc1OC)C(C(=O)NCC(=O)OCC)c1cccs1 (centres unmarked) [PACMA-31, N-(2,4-Dimethoxyphenyl)-N-(1-oxo-2-propyn-1-yl)-2-(2-thienyl)glycyl-glycine ethyl ester, reference compound] | – | – | – | demonstrated inhibitory activity | demonstrated inhibitory activity |
